Where two headings read alike, the source gives them in different places.
Columns and labels:
[1] = tested on: bone marrow cells; conditions: 30 mg/kg or 100 mg/kg daily gavage, 70 days, vs vehicle control
Protocol: The study consisted of 3 groups of BALB/cByJ mice (10 mice per group). Mice received daily gavage treatments of either 30 mg/kg, 100 mg/kg of dexpramipexole or vehicle control for 70 days. Bone marrow was processed into single cell suspensions and cells were stained with fluorescent conjugate antibodies to analyze the developmental stages of cells by flow cytometry. […] The columns depict the mean for each group and the error bar indicates the standard error of the mean.

[2] = tested on: eosinophils
Protocol: In a 39-week repeat-dose toxicology study, minipigs were dosed at 0, 7.5, 25, and 75 mg/kg dexpramipexole by daily oral gavage through Study Day 45 and at 0, 7.5, 25, and 50 mg/kg dexpramipexole from Study Day 46 to study completion.

[3] = tested on: eosinophils; remark: listed apart in the source
Protocol: (§1) The phase 3 clinical trial was a double-blind study of dexpramipexole in ALS patients randomized 1:1 to placebo or dexpramipexole 300 mg daily treatment. Hematology parameters were collected as part of routine safety monitoring. Eosinophil and basophil counts were retrospectively analyzed by visit.
Eosinophil levels were summarized over available time points and analyzed by ANOVA testing the effect of treatment vs. placebo on mean changes in serum eosinophil counts from baseline. Subjects with baseline eosinophils from 0 to 0.02×10^9/L (constituting less than 2% of all subjects analyzed) were censored from the primary analysis because of the inherent limitation to observe a decline from baseline.
Statistical analysis of the change from baseline was performed at month 6 to remove the effect of study dropouts in later months.

[4] = tested on: basophils; conditions: 300 mg daily
Protocol: as §1
Changes in basophil counts were also analyzed in the Phase 3 trial.

[5] = exposures up to 18 months
[6] = tested on: myeloid and lymphoid cell types, red blood cells, platelets; conditions: 300 mg daily, month 6
Protocol: Hematological parameters were measured in a Phase 3 study of dexpramipexole in ALS. Because of the high rate of mortality among ALS patients, including subjects in the Phase 3 trial, hematology parameters obtained at the month 6 visit were chosen for analysis to remove the effect of study dropouts in later months.

[7] = tested on: eosinophils; conditions: for decline in mean serum eosinophils from baseline to week 12: 12 weeks, Part 1; for mean eosinophils at week 16 recovered to % of baseline levels: after one-month washout
Protocol: The Phase 2 trial was a two-part, double-blind study that evaluated the safety, tolerability, and clinical effects of dexpramipexole in ALS patients.
In Part 1, subjects were randomized to placebo (n=27), 50 mg/day (n=23), 150 mg/day (n=26), or 300 mg/day dexpramipexole (n=26) for 12 weeks.

## CCCN[C@@H]1CCc2nc(N)sc2C1 [dexpramipexole, (6R)-2-amino-4,5,6,7-tetrahydro-6-(propylamino) benzothiazole]
[1]
  Siglec-F^lo IL5Rα^hi positive cells (developing B cells, basophils and other cell populations) in bone marrow: lowered
  number of Scal^+ c-Kit^+ lineage negative cells (multipotent hematopoietic stem cells) in bone marrow: lowered
[2]; minipig, in vivo
  safety assessment of eosinophil differences: not considered adverse
[2]; minipigs, 7.5, 25 and 75/50 mg/kg daily oral gavage, 39 weeks
  reduction in eosinophils: dose- and time-dependent reduction
[3]; 300 mg daily, after 6 months of treatment
  subjects experiencing a 50% or greater decline in eosinophil count: 77.5 % of subjects
[3]; 300 mg daily, after 8-12 weeks of treatment
  peripheral blood eosinophil count: profound decrease
[3]; 300 mg daily, month 6
  mean eosinophil counts reduced from baseline: 68.4%
[3]; 300 mg daily, n=42, after 6 months of treatment
  decrease in eosinophil count in subjects with higher eosinophil counts (>0.25×10^9/L): 75%
[3]; 300 mg daily, persisted through month 12
  time at which eosinophil-lowering effect reached plateau: ~4 month
[3]; one Phase 3 subject, persisted through month 12
  eosinophil counts in subject with highest baseline eosinophil count: decrease in eosinophil counts
[4]; remained reduced through month 12
  time at which basophil count decline reached plateau: ~4 month
[4]; six month analysis
  mean basophil counts reduced from baseline: 45.5%
[5]
  tolerability in humans: well-tolerated
[6]
  all myeloid and lymphoid cell types measured, change from baseline: statistically significant mean reductions
[7]; 50 mg/day
  decline in mean serum eosinophils from baseline to week 12: 18.2%
[7]; 150 mg/day group
  mean eosinophils at week 16 recovered to % of baseline levels: 47 % of baseline levels
[7]; 150 mg/day
  decline in mean serum eosinophils from baseline to week 12: 69.9%
[7]; 300 mg/day group
  mean eosinophils at week 16 recovered to % of baseline levels: 73 % of baseline levels
[7]; 300 mg/day
  decline in mean serum eosinophils from baseline to week 12: 42.9%
[7]; ALS subjects receiving dexpramipexole, Phase 2
  decrease in eosinophil counts: dose- and time-dependent decrease
[7]; Part 2, 25 mg twice daily
  decline in eosinophils from week 16 to week 40: 17.6%
[7]; Part 2, 150 mg twice daily
  decline in eosinophils from week 16 to week 40: 78.9%
[7]; one Phase 2 subject, persisted through month 12
  eosinophil counts in one subject with hypereosinophilia at Part 2 baseline: decrease in eosinophil counts
